Data on four molecules can be found in article PMC7318359, “Stapled Peptides as HIF‐1α/p300 Inhibitors: Helicity Enhancement in the Bound State Increases Inhibitory Potency” (Chemistry (Weinheim an Der Bergstrasse, Germany), 2020).

For orientation: IC50 means the concentration at which inhibition is half-maximal. A higher IC50 goes with weaker potency.

Assay [1] addresses HIF‐1α/p300 interaction (Homo sapiens, UniProt Q09472). Description: Fluorescence anisotropy competition assay (displacement of FITC‐Ahx‐HIF‐1α786–826 tracer from p300). It is filed as binding. To be noted: p300 (100 nM); for IC50: FA competition, FITC‐Ahx‐HIF‐1α786–826 tracer, 20 mM Tris, 100 mM NaCl 0.1 mM DTT, pH 7.46, read after 45 minutes at room temperature, triplicate. As to the method:
Fluorescence anisotropy assays were performed in 384‐well plates (Greiner Bio‐one). Each experiment was run in triplicate and the fluorescence anisotropy measured using a Perkin–Elmer EnVisionTM 2103 MultiLabel plate reader, with excitation at 480 nm (30 nm bandwidth), polarised dichroic mirror at 505 nm and emission at 535 nm (40 nm bandwidth, S and P polarised). All assays were performed in 20 mM Tris, 100 mM NaCl 0.1 mM DTT, pH 7.46 unless otherwise stated and data analysed following previously published methods.
Where I is the total intensity, G is an instrument factor which was set to 1 for all experiments and r is the anisotropy. The average anisotropy (across three experimental replicates) and the standard deviation of these values were then calculated and fit to a sigmoidal logistic model [Eq. (3)] using OriginPro 9.0 which provided the IC50 and error values: y = r max + (r min−r max)/(1+(x/xo) p).
FA competition assays were performed in 384 well plates with the concentration of peptide competitor typically starting from 850 μM, diluted over 16 points in 1/2 regime with fixed protein and tracer concentrations. […] For control wells, the tracer peptide was replaced with an identical volume of assay buffer. The total volume in each well was 60 μL. Plates were read after 45 minutes of incubation at room temperature.

Assay [2] has as its target p300 (UniProt Q09472 1-2414). Description: fluorescence polarisation; fluorescence anisotropy competition; peptide competitor diluted from about 850 μM over 16 points against fixed p300 (100 nM) and FITC tracer (25 nM in the legend, 50 nM in the methods); 20 mM Tris, 100 mM NaCl, 0.1 mM DTT, pH 7.46; 45 minutes at room temperature. The note with it: both partners purified. A general note: Polarisation of emitted light reports the rotation of a fluorescent probe.

Bridge positions count the residues as written; N and C are the ends. Ends that are not written are not given here. Peptide text beside a SMILES is read from it. Some results are limits rather than exact numbers.

Sequence of p300 (Q09472 whole entry): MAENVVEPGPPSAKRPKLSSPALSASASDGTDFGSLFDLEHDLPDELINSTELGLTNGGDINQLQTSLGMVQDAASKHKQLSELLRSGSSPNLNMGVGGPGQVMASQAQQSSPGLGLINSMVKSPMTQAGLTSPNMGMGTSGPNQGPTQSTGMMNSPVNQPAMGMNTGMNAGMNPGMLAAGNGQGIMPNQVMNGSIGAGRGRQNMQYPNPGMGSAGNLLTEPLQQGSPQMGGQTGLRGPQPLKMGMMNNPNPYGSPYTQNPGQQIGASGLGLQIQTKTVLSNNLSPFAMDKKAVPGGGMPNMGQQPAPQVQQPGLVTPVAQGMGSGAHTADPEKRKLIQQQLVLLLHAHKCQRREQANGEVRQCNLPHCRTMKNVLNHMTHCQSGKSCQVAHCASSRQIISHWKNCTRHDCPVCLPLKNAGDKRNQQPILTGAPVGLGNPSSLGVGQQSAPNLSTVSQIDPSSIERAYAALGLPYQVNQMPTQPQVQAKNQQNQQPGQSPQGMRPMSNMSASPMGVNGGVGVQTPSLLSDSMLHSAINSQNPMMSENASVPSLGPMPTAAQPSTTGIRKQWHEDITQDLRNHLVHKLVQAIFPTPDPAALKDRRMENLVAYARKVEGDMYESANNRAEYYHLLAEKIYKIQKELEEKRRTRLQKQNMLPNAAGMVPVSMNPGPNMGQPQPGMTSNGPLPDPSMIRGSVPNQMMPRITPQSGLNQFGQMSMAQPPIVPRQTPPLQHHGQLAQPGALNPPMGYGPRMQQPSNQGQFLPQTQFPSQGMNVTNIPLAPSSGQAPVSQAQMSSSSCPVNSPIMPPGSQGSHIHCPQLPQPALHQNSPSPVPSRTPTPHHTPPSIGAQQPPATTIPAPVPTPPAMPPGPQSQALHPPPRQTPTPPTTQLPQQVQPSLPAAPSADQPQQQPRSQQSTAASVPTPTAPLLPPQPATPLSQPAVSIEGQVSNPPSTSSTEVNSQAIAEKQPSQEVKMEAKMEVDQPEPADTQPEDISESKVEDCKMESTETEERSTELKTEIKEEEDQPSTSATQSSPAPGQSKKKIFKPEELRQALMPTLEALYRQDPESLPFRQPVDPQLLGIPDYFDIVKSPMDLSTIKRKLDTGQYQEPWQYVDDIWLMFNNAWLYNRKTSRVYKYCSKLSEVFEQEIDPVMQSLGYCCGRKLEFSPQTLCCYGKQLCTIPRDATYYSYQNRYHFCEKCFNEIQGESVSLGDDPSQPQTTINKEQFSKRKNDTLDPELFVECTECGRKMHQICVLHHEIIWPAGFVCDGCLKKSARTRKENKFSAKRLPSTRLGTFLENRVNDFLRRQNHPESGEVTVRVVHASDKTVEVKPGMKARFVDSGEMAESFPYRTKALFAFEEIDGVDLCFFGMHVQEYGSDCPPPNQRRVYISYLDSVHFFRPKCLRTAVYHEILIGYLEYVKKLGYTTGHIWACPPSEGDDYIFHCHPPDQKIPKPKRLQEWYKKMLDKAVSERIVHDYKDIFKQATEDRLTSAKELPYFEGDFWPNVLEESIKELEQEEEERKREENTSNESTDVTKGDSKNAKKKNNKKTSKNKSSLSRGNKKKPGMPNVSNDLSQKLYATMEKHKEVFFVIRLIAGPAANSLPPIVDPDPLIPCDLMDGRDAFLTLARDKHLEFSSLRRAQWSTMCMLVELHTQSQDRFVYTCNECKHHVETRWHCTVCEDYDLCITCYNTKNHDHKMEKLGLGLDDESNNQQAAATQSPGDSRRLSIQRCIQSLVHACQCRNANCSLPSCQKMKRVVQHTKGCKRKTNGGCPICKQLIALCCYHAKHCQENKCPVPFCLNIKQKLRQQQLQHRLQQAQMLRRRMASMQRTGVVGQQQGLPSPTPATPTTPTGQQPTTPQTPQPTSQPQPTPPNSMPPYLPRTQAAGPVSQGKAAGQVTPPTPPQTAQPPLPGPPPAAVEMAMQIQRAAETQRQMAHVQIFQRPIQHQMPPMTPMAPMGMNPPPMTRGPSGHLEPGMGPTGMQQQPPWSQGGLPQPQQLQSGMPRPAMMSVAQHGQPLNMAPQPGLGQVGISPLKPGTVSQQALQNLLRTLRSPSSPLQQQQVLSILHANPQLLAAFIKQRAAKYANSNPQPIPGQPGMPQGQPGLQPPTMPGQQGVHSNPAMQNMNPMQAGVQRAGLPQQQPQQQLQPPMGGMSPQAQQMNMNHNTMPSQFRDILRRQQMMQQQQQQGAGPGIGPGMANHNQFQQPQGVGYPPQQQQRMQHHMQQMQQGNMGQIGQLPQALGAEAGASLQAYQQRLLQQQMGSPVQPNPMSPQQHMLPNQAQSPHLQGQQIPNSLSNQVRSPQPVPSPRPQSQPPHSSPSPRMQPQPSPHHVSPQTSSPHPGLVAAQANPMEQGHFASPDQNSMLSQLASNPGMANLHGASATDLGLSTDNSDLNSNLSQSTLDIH

Take `CC(=O)N[C@@H](CC(C)C)C(=O)N[C@@H](CCC(N)=O)C(=O)NCC(=O)N[C@H]1CSSC[C@@H](C(=O)N[C@@H](C)C(=O)N[C@@H](CC(C)C)C(=O)N[C@@H](CC(=O)O)C(=O)N[C@@H](CCC(N)=O)C(=O)N[C@H](C(=O)N[C@@H](CC(N)=O)C(N)=O)C(C)C)NC(=O)[C@H](CC(C)C)NC(=O)[C@H](CC(C)C)NC(=O)[C@H](CCC(=O)O)NC1=O` [HIF‐1α812–826 oxE816C‐R820C] (Ac-LQGCELLCALDQVN-NH2; disulfide 4-8): the IC50 in assay [1] is greater than 600 µM.
In assay [1], `CC(=O)N[C@@H](CC(C)C)C(=O)N[C@@H](CCC(N)=O)C(=O)NCC(=O)N[C@@H](CS)C(=O)N[C@@H](CCC(=O)O)C(=O)N[C@@H](CC(C)C)C(=O)N[C@@H](CC(C)C)C(=O)N[C@@H](CS)C(=O)N[C@@H](C)C(=O)N[C@@H](CC(C)C)C(=O)N[C@@H](CC(=O)O)C(=O)N[C@@H](CCC(N)=O)C(=O)N[C@H](C(=O)N[C@@H](CC(N)=O)C(N)=O)C(C)C` [HIF‐1α812–826 redE816C‐R820C] (Ac-LQGCELLCALDQVN-NH2) displayed an IC50 of 9.9 µM.
As to “Ac-LQGEELLRALDQVN-NH2 [wt‐HIF‐1α812–826, wild‐type HIF‐1α helix 3 peptide, N‐acetyl, C‐terminal amide]”, in assay [1] (FITC‐Ahx‐HIF‐1α786–826 tracer (25 nM), pH 7.46), the “Inhibition / tracer displacement in FA competition assay” value is “weak inhibition and could not fully displace tracer”.

B1: HIF‐1α_(812–826) sE816C‐R820C (peptide, UniProt Q16665 812-826, looked up)
peptide: Ac-LLQGCELLCALDQVN
modifications: bridge 5-9; not fully specified (bridges)
notes: Made on Rink Amide MBHA resin, so probably a C-terminal amide; also called stapled peptide; dibromomaleimide stapled (s) E816C-R820C; source: synthetic peptide
Take B1: the IC50 in assay [2] was found to be 30.3 ± 5 µM.
